Patent US20250171450A1, “NOVEL COELENTERAZINE DERIVATIVES” (National Institute of Advanced Industrial Science and …, priority 2022, published 2025)

Assays:
ALuc16 = assay: Evaluation of luminescence brightness, ALuc16 expressed in COS-7 cells (live cells and lysates); assay type: cell-based, luminescent plankton; settings: COS-7 live cells and lysates (FIGS. 1, 2); 100 μM diluted luminescent substrate solution
Experimental: (§1) For luminescence measurements, the IVIS Imaging System purchased from PerkinElmer (old name: Caliper Life Sciences) was used.
(§2) As live cells expressing luminescent enzymes, COS-7 cells derived from the kidney of an African green monkey were used, and the evaluations were also conducted with the lysates produced by the lysis of these live cells.
(§3) The COS-7 cells derived from the kidney of the African green monkey were seeded in a 6-well microplate and were cultured in a CO2 incubator until 70% of the bottom area was covered by the cells. Using TransIT-LT1 reagent (Mirus), the plasmid encoding each of the following marine bioluminescent enzymes was transiently expressed in cells in each well.
(§4) After this lipofection, the cells were cultured in a CO2 incubator for one day. The cells were then subcultured into a 96-well microplate and further incubated for one day.
(§5) The wells with cells transfected with the same plasmid were conceptually divided into two, where one was used for lysate experiments and the other for live cell experiments. For the lysate, first, the cell medium was removed from the 96-well microplate, and then 40 μL of cell lysis reagent (lysate) available from Promega K. K. was injected into each well and the plate was incubated for 15 minutes. For the live cell experiments, after the cell medium was completely removed, the microplate was immediately sealed to prevent the sample evaporation until the luminescence measurements.
(§6) Each luminescent substrate was first dissolved in methanol (PEG400, 25%) to 5 mM (stock solution), which was further diluted with phosphate-buffered saline (PBS) to 100 μM (this solution is hereinafter referred to as diluted luminescent substrate solution). This “diluted luminescent substrate solution” was dispensed in advance into each empty well of a 96-well microplate. […] The bioluminescence brightness from the 96-well black frame microplate was measured, and analyzed using the dedicated software Living Image ver. […]

ALuc47 = assay: Evaluation of luminescence brightness, ALuc47 expressed in COS-7 cells (live cells and lysates); assay type: cell-based, luminescent plankton; settings: 100 μM diluted luminescent substrate solution
Experimental: as §1, §2, §3, §4, §5, §6

[1] = test system: Renilla luciferase 8.6-535SG (RLuc8.6SG); assay: Evaluation of luminescence brightness, RLuc8.6SG expressed in COS-7 cells (live cells and lysates); assay type: cell-based, Renilla reniformis; settings: COS-7 live cells and lysates (FIGS. 7, 8); 100 μM diluted luminescent substrate solution
Experimental: as §1, §2, §3, §4, §5, §6

NanoLuc [2] = molecular target: T1, NanoLuc (Oplophorus gracilirostris, UniProt Q9GV45, A31E/A60N/A81I/F95D/I117V/K70R/L54V/L99Q/M102K/N193R/P142E/Q151K/Q38R/Q45L/V71I/Y165I); assay: Evaluation of luminescence brightness, NanoLuc expressed in COS-7 cells (live cells and lysates); assay type: cell-based; settings: COS-7 live cells and lysates (FIGS. 10, 11); 100 μM diluted luminescent substrate solution
T1 construct: host or cells: COS-7
T1 sequence (Q9GV45 28-196 with tags or gaps with the stated changes limits assumed): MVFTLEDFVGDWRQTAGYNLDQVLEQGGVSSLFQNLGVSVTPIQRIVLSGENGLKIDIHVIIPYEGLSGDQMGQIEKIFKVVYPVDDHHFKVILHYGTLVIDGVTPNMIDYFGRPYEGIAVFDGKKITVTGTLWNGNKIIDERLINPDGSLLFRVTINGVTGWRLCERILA
Experimental: as §1, §2, §3, §4, §5, §6

[3] = test system: ALuc16, ALuc47, RLuc8.6SG, NanoLuc; assay: Enzyme specificity from luminescence brightness across the luminescent enzymes; assay type: cell-based; settings: comparison of luminescence among ALuc16, ALuc47, RLuc8.6SG
Experimental: as §1, §2, §3, §4
The wells with cells transfected with the same plasmid were conceptually divided into two, where one was used for lysate experiments and the other for live cell experiments. […] For the live cell experiments, after the cell medium was completely removed, the microplate was immediately sealed to prevent the sample evaporation until the luminescence measurements. […]

NanoLuc [4] = molecular target: T1, NanoLuc; assay: Evaluation of bioluminescence spectrum, NanoLuc lysate; assay type: biochemical; settings: COS-7 lysate (FIG. 12)
Experimental: Measurements were conducted using the luminescence spectrum device AB-1850 available from ATTO Corporation.
The measured spectra were obtained with a measurement parameter-tuned detector.
The COS-7 cells were seeded in a 6-well microplate and were cultured in a CO2 incubator until 70% of the bottom area was covered by the cells. Using TransIT-LT1 reagent (Mirus), the plasmid encoding each of the following marine bioluminescent enzymes was transiently expressed in cells in each well.
After this lipofection, the cells were cultured in a CO2 incubator for one day. After the cell medium was completely removed from the 6-well microplate, 200 μL of cell lysis reagent (lysate) available from Promega K. K. was added to each well and the microplate was incubated at room temperature for 15 minutes.
Twenty microliters of this lysate were dispensed into each PCR tube, and 20 μL of the 100 μM diluted luminescent substrate solution was added at the time of luminescence brightness evaluation. The PCR tubes were immediately placed in a spectrophotometer (AB-1850, ATTO Corporation), and the bioluminescence spectrum was measured in the high-sensitivity mode with integration modes of 0.5 seconds, 5 seconds, 10 seconds, and 30 seconds. […]

[5] = COS-7 live cells and lysates (FIGS. 4, 5)

## O=c1c(Cc2ccc(O)cc2)nc2c(Cc3ccccc3)[nH]c(-c3ccc4c(c3)OCCO4)cn1-2 [structural formula (1-1)]
ALuc16
  luminescence for ALuc16: high luminescence at high brightness
ALuc47; [5]
  luminescence for ALuc47: slight luminescence
[1]
  luminescence for RLuc8.6SG: slight luminescence
NanoLuc [2]
  luminescence for NanoLuc: no luminescence activity
[3]
  enzyme specificity: enzyme specificity for ALuc16

## O=c1c(Cc2ccc(O)cc2)nc2c(Sc3ccc(F)cc3)[nH]c(-c3ccc(O)cc3)cn1-2 [structural formula (2-2)]
ALuc16
  luminescence for ALuc16: luminescence activity
ALuc47; COS-7 live cells (FIG. 4 only cited)
  luminescence for ALuc47: slight luminescence
[1]
  luminescence for RLuc8.6SG: luminescence activity
NanoLuc [2]
  luminescence for NanoLuc: slight luminescence

## O=c1c(Cc2ccc(O)cc2)nc2c(Sc3ccccc3)[nH]c(-c3ccc(O)cc3)cn1-2 [structural formula (2-1)]
ALuc16
  luminescence for ALuc16: luminescence activity
ALuc47; [5]
  luminescence for ALuc47: also showed luminescence
[1]
  luminescence for RLuc8.6SG: luminescence activity
NanoLuc [2]
  luminescence for NanoLuc: luminescence activity
NanoLuc [4]
  luminescence spectral peak for NanoLuc: 507 nm
